Measured values published in US4291021A, “Novel macrolide antibiotics and preparation thereof” (Toyo Jozo Company, Ltd., priority 1978, dated 1981).

Assays:
[1] = solubility; format: physicochemical
[2] = system: Streptococcus pyogenes (1022); test: antibacterial spectrum, agar dilution method; format: cell-based; details: S. pyogenes 1022, 10^8 x1
[3] = system: Serratia marcescence; test: antibacterial spectrum, agar dilution method; format: cell-based; details: 10^8 x1
[4] = system: Streptococcus faecalis (1501); test: antibacterial spectrum, agar dilution method; format: cell-based; details: S. faecalis 1501, 10^8 x1
[5] = system: Mycoplasma synoviae; test: anti-mycoplasmal spectrum, agar dilution method; format: cell-based; details: 10^8 x1
[6] = system: Staphylococcus aureus (ATCC 6538 P); test: antibacterial spectrum, agar dilution method; format: cell-based; details: S. aureus ATCC 6538 P, 10^8 x1
[7] = system: Klebsiella pneumoniae (ATCC 10031); test: antibacterial spectrum, agar dilution method; format: cell-based; details: 10^8 x1
[8] = system: Salmonella enteritidis gertner; test: antibacterial spectrum, agar dilution method; format: cell-based; details: 10^8 x1
[9] = system: Pseudomonas aeruginosa (IAM 1095); test: antibacterial spectrum, agar dilution method; format: cell-based; details: 10^8 x1
[10] = system: Shigella sonney (E 33); test: antibacterial spectrum, agar dilution method; format: cell-based; details: 10^8 x1
[11] = system: Staphylococcus epidermidis (s.p.-al-l); test: antibacterial spectrum, agar dilution method; format: cell-based; details: 10^8 x1
[12] = system: Staphylococcus aureus (0127); test: antibacterial spectrum, agar dilution method; format: cell-based; details: S. aureus 0127, 10^8 x1
[13] = system: Bacillus subtilis (ATCC 6633); test: antibacterial spectrum, agar dilution method; format: cell-based; details: 10^8 x1
[14] = system: Staphylococcus aureus (MS 353 AO); test: antibacterial spectrum, agar dilution method; format: cell-based; details: S. aureus MS 353 AO, 10^8 x1
[15] = system: Escherichia coli (NIHJ-JC2); test: antibacterial spectrum, agar dilution method; format: cell-based; details: E. coli NIHJ-JC2, 10^8 x1
[16] = system: Shigella flexneri type 3a; test: antibacterial spectrum, agar dilution method; format: cell-based; details: 10^8 x1
[17] = system: Staphylococcus aureus (0119); test: antibacterial spectrum, agar dilution method; format: cell-based; details: S. aureus 0119, 10^8 x1
[18] = system: Streptococcus pyogenes (N.Y.5); test: antibacterial spectrum, agar dilution method; format: cell-based; details: S. pyogenes N.Y.5, 10^8 x1
[19] = system: Streptococcus agalactiae (1020); test: antibacterial spectrum, agar dilution method; format: cell-based; details: S. agalactiae 1020, 10^8 x1
[20] = system: Mycoplasma gallisepticum; test: anti-mycoplasmal spectrum, agar dilution method; format: cell-based; details: 10^8 x1
[21] = system: Escherichia coli (B); test: antibacterial spectrum, agar dilution method; format: cell-based; details: E. coli B, 10^8 x1
[22] = system: Salmonella typhosa (E 901); test: antibacterial spectrum, agar dilution method; format: cell-based; details: 10^8 x1
[23] = system: Sarcina lutea (ATCC 9341); test: antibacterial spectrum, agar dilution method; format: cell-based; details: 10^8 x1
[24] = acidic or basic nature; format: physicochemical
[25] = system: Staphylococcus aureus (MS 353 C36); test: antibacterial spectrum, agar dilution method; format: cell-based; details: S. aureus MS 353 C36, 10^8 x1
[26] = system: Proteus vulgaris (OX19); test: antibacterial spectrum, agar dilution method; format: cell-based; details: 10^8 x1
[27] = system: Staphylococcus aureus (MS 353); test: antibacterial spectrum, agar dilution method; format: cell-based; details: S. aureus MS 353, 10^8 x1
[28] = system: Staphylococcus aureus (0116); test: antibacterial spectrum, agar dilution method; format: cell-based; details: S. aureus 0116, 10^8 x1
[29] = system: Corynebacterium diphtheriae (P.W.8); test: antibacterial spectrum, agar dilution method; format: cell-based; details: 10^8 x1
[30] = system: Micrococcus flavus (ATCC 10240); test: antibacterial spectrum, agar dilution method; format: cell-based; details: 10^8 x1

**Q.** For `CC[C@H]1OC(=O)/C=C/[C@H](C)[C@@H](O[C@@H]2O[C@H](C)C[C@H](N(C)C)[C@H]2O)[C@@H](C)C[C@@H](C)C(=O)/C=C/[C@@H]2O[C@H]2[C@]1(O)CO[C@@H]1O[C@H](C)[C@@H](O)[C@@H](OC)[C@H]1OC` [A 11725 II], which “Solubility compared with A 11725 I” value ([1]; similar to A 11725 I) is on record?
**A.** The value was “Similar”.

**Q.** What about the “Minimum growth inhibitory concentration” value [2] of the same compound?
**A.** Its value is greater than 100 µg/mL.

**Q.** What about the “Minimum growth inhibitory concentration” value [3] of the same compound?
**A.** The value was greater than 100 µg/mL.

**Q.** What about the “Minimum growth inhibitory concentration” value [4] of the same compound?
**A.** The value was greater than 100 µg/mL.

**Q.** And the “Minimum growth inhibitory concentration” value [5]?
**A.** Its value is 0.8 µg/mL.

**Q.** What about the “Minimum growth inhibitory concentration” value [6] of the same compound?
**A.** Its value is 0.2 µg/mL.

**Q.** What about the “Minimum growth inhibitory concentration” value [7] of the same compound?
**A.** Its value is 25 µg/mL.

**Q.** What about the “Minimum growth inhibitory concentration” value [8] of the same compound?
**A.** The value was greater than 100 µg/mL.

**Q.** What about the “Minimum growth inhibitory concentration” value [9] of the same compound?
**A.** Its value is greater than 100 µg/mL.

**Q.** And the “Minimum growth inhibitory concentration” value [10]?
**A.** Its value is greater than 100 µg/mL.

**Q.** And the “Minimum growth inhibitory concentration” value [11]?
**A.** The value was 0.1 µg/mL.

**Q.** And the “Minimum growth inhibitory concentration” value [12]?
**A.** The value was greater than 100 µg/mL.

**Q.** What about the “Minimum growth inhibitory concentration” value [13] of the same compound?
**A.** The value was 0.4 µg/mL.

**Q.** What about the “Minimum growth inhibitory concentration” value [14] of the same compound?
**A.** Its value is greater than 100 µg/mL.

**Q.** What about the “Minimum growth inhibitory concentration” value [15] of the same compound?
**A.** Its value is greater than 100 µg/mL.

**Q.** What about the “Minimum growth inhibitory concentration” value [16] of the same compound?
**A.** Its value is 50 µg/mL.

**Q.** What about the “Minimum growth inhibitory concentration” value [17] of the same compound?
**A.** The value was greater than 100 µg/mL.

**Q.** What about the “Minimum growth inhibitory concentration” value [18] of the same compound?
**A.** Its value is no more than 0.05 µg/mL.

**Q.** And the “Minimum growth inhibitory concentration” value [19]?
**A.** The value was 6.3 µg/mL.

**Q.** What about the “Minimum growth inhibitory concentration” value [20] of the same compound?
**A.** Its value is 0.03 µg/mL.

**Q.** What about the “Minimum growth inhibitory concentration” value [21] of the same compound?
**A.** The value was 25 µg/mL.

**Q.** And the “Minimum growth inhibitory concentration” value [22]?
**A.** The value was greater than 100 µg/mL.

**Q.** What about the “Minimum growth inhibitory concentration” value [23] of the same compound?
**A.** The value was no more than 0.05 µg/mL.

**Q.** What about the “Acidic or basic nature” value [24] of the same compound?
**A.** Its value is “Basic”.

**Q.** What about the “Minimum growth inhibitory concentration” value [25] of the same compound?
**A.** The value was 0.1 µg/mL.

**Q.** And the “Minimum growth inhibitory concentration” value [26]?
**A.** Its value is 50 µg/mL.

**Q.** And the “Minimum growth inhibitory concentration” value [27]?
**A.** The value was 0.2 µg/mL.

**Q.** What about the “Minimum growth inhibitory concentration” value [28] of the same compound?
**A.** The value was greater than 100 µg/mL.

**Q.** And the “Minimum growth inhibitory concentration” value [29]?
**A.** Its value is 0.4 µg/mL.

**Q.** And the “Minimum growth inhibitory concentration” value [30]?
**A.** Its value is 0.2 µg/mL.

**Q.** For `CC[C@H]1OC(=O)/C=C/[C@H](C)[C@@H](O[C@@H]2O[C@H](C)C[C@H](N(C)C)[C@H]2O)[C@@H](C)C[C@@H](C)C(=O)/C=C/C2OC2[C@@H]1CO[C@@H]1O[C@H](C)[C@@H](O)[C@@H](OC)[C@H]1OC` (stereo partly drawn) [A 11725 I], which “Solubility in acidic water and organic solvents” value ([1]; acidic water, methanol, acetone, ethyl acetate, benzene) is on record?
**A.** The value was “Soluble”.

**Q.** And the “Minimum growth inhibitory concentration” value [2]?
**A.** The value was greater than 100 µg/mL.

**Q.** What about the “Minimum growth inhibitory concentration” value [3] of the same compound?
**A.** The value was greater than 100 µg/mL.

**Q.** What about the “Minimum growth inhibitory concentration” value [4] of the same compound?
**A.** The value was greater than 100 µg/mL.

**Q.** And the “Minimum growth inhibitory concentration” value [5]?
**A.** The value was 0.03 µg/mL.

**Q.** What about the “Minimum growth inhibitory concentration” value [6] of the same compound?
**A.** The value was 0.2 µg/mL.

**Q.** What about the “Minimum growth inhibitory concentration” value [7] of the same compound?
**A.** Its value is 25 µg/mL.

**Q.** And the “Minimum growth inhibitory concentration” value [8]?
**A.** The value was greater than 100 µg/mL.

**Q.** What about the “Minimum growth inhibitory concentration” value [9] of the same compound?
**A.** The value was greater than 100 µg/mL.

**Q.** What about the “Minimum growth inhibitory concentration” value [10] of the same compound?
**A.** The value was greater than 100 µg/mL.

**Q.** What about the “Minimum growth inhibitory concentration” value [11] of the same compound?
**A.** The value was 0.1 µg/mL.

**Q.** And the “Minimum growth inhibitory concentration” value [12]?
**A.** Its value is greater than 100 µg/mL.

**Q.** What about the “Minimum growth inhibitory concentration” value [13] of the same compound?
**A.** The value was 0.4 µg/mL.

**Q.** And the “Minimum growth inhibitory concentration” value [14]?
**A.** The value was greater than 100 µg/mL.

**Q.** And the “Minimum growth inhibitory concentration” value [15]?
**A.** The value was greater than 100 µg/mL.

**Q.** And the “Minimum growth inhibitory concentration” value [16]?
**A.** Its value is 100 µg/mL.

**Q.** What about the “Minimum growth inhibitory concentration” value [17] of the same compound?
**A.** Its value is greater than 100 µg/mL.

**Q.** What about the “Minimum growth inhibitory concentration” value [18] of the same compound?
**A.** Its value is no more than 0.05 µg/mL.

**Q.** And the “Minimum growth inhibitory concentration” value [19]?
**A.** The value was 12.5 µg/mL.

**Q.** And the “Minimum growth inhibitory concentration” value [20]?
**A.** The value was 0.006 µg/mL.

**Q.** And the “Minimum growth inhibitory concentration” value [21]?
**A.** Its value is 100 µg/mL.

**Q.** And the “Minimum growth inhibitory concentration” value [22]?
**A.** The value was greater than 100 µg/mL.

**Q.** And the “Minimum growth inhibitory concentration” value [23]?
**A.** The value was no more than 0.05 µg/mL.

**Q.** And the “Acidic or basic nature” value [24]?
**A.** The value was “Basic”.

**Q.** What about the “Minimum growth inhibitory concentration” value [25] of the same compound?
**A.** Its value is no more than 0.05 µg/mL.

**Q.** What about the “Minimum growth inhibitory concentration” value [26] of the same compound?
**A.** Its value is 100 µg/mL.

**Q.** What about the “Minimum growth inhibitory concentration” value [27] of the same compound?
**A.** Its value is 0.2 µg/mL.

**Q.** What about the “Minimum growth inhibitory concentration” value [28] of the same compound?
**A.** The value was greater than 100 µg/mL.

**Q.** And the “Minimum growth inhibitory concentration” value [29]?
**A.** Its value is 0.4 µg/mL.

**Q.** What about the “Minimum growth inhibitory concentration” value [30] of the same compound?
**A.** Its value is no more than 0.05 µg/mL.
